Several values for one entry are separate records, joined by “and”; a condition that tells them apart may be missing. Equal values may be shown once.
Assays:
TrxR from E. coli = TrxR from E. coli (Escherichia coli, UniProt P0A9P4); assay: Inhibition of isolated bacterial TrxR, DTNB-based assay; format: biochemical; parameters: purchased Sigma-Aldrich; conditions: for TrxR activity, % of control: compounds at 0.5 µM, n = 2, Table S13; for IC50: isolated E. coli TrxR, DTNB assay, ± standard deviation, n = 3
Sequence of TrxR from E. coli (P0A9P4 2-321): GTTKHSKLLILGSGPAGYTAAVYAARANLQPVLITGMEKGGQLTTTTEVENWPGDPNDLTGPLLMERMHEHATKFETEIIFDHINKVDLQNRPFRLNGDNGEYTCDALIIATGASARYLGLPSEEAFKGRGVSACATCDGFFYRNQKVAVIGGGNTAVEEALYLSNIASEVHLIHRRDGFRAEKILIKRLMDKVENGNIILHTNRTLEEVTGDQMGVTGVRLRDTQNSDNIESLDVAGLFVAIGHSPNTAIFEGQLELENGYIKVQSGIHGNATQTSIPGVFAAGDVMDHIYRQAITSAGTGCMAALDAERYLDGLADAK
Method: The inhibition of isolated TrxR from E. coli was determined for the selected monocarbene gold(I/III) complexes 2a–c and 4b–c using a DTNB-based assay (Table 3). […] The inhibition of bacterial TrxR for compound 2a was investigated in our previous report (Table 3).
S2.3. Inhibition of bacterial TrxR from E. coli
The TrxR (E. coli) inhibition assay was performed according to previously published procedures.[8] The assay is partly based on the procedure developed by Lu et al[9] and makes use of the reduction of DTNB (5,5′-dithiobis-(2-nitrobenzoic acid)). Solutions of E. coli TrxR (10.1 U/mL) and E. coli thioredoxin (Trx) (312 μg/mL) (both purchased from Sigma-Aldrich) were prepared in distilled water. Stock solutions of the test compounds (2 mM) were prepared in DMSO and serially diluted with TE buffer (Tris-HCl 50 mM, EDTA 1 mM, pH 7.5). 20 μL of these solutions or TE buffer without the test compounds (positive control) were mixed with the TrxR solution (10 μL), the Trx solution (10 μL) and 100 µl of NADPH (200 μM) in TE buffer in a well on a 96-well plate. As a blank control, 200 μM NADPH in TE buffer (100 μL) mixed with a DMSO / buffer mixture (40 μL) was used (final concentrations of DMSO: 0.5% v/v). The plate was incubated for 75 min at 25°C with moderate shaking. After incubation, 100 μL of a reaction mixture (TE buffer containing 200 μM NADPH and 5 mM DTNB) was added to each well to initiate the reaction. After thorough mixing, the formation of 5-TNB was monitored by a microplate reader at 405 nm in 35 s intervals (10 measurements). The values were corrected by subtraction of the blank solution absorption values. The increase in concentration of 5-TNB followed a linear trend (r2≥ 0.990) and the enzymatic activities were calculated as the gradients (increase in absorbance per second) thereof. […]
for each test compound, where the highest test compound concentration was used and the enzyme solution was replaced by TE buffer. The inhibition is presented as the mean IC50 values and standard deviations obtained in three independent experiments.
Table S13. Activity of TrxR from E. coli in presence of compounds at 0.5 µM (n = 2, n.d.= not

[1] = tested on: Vero E6 African green monkey kidney cells; assay: Antiproliferative activity in non-tumour reference cell line; format: cell-based; conditions: for IC50: Vero E6 non-tumour reference cell line, SD in parentheses, n = 3
Method: (§1) The antiproliferative potential of the gold–NHC complexes was determined in A549 lung carcinoma cells, MDA-MB-231 breast cancer cells, MCF-7 breast adenocarcinoma cells, and HT-29 colon carcinoma cells (Table 1). Vero E6 African green monkey kidney cells served as a reference cell line to check for possible tumour selectivity. Auranofin (AF) was used as an established reference drug.[15,17] […]
(§2) S2.2. Cytotoxicity and Anticancer Studies
(§3) Cell culture and cytotoxicity
(§4) Cell lines were sourced from DSMZ (German Collection of Microorganisms and Cell Cultures GmbH) and maintained through standard procedures in Dulbecco's Modified Eagle Medium (DMEM) supplemented with 10% fetal calf serum and 50 mg/L gentamycin. Antiproliferative effects were assessed using a well-established assay protocol. In brief, 100 μL volumes of A549 cells (13,243 cells per mL), HT-29 cells (14,657 cells per mL), MDA-MB-231 cells (6,613 cells per mL), or MCF-7 cells (6,917 cells per mL) were transferred into the wells of 96-well plates and incubated at 37°C/5% CO2 for 72 […]
(§5) Freshly prepared stock solutions of the compounds in DMSO were diluted with the respective cell culture medium to achieve graded concentrations (final concentration of DMSO: 0.1% v/v). After 72 hours (A549, HT-29) or 96 hours (MCF-7, MDA-MB-231) of exposure, the cell biomass was assessed through crystal violet staining, and the IC50 value was determined as the concentration causing 50% inhibition of cell proliferation compared to an untreated control. Results were calculated as the mean values of three independent experiments.

[2] = tested on: methicillin-resistant Staphylococcus aureus DSM 11822; assay: Antibacterial activity (MIC, curve fitting); format: cell-based
Method: (§6) The antibacterial activity of all gold complexes was assessed against six pathogenic bacterial strains, including two Gram-positive species, i.e. Enterococcus faecium and methicillin-resistant Staphylococcus aureus (MRSA), and four Gram-negative species, i.e. Acinetobacter baumannii, Escherichia coli, Klebsiella pneumoniae, and Pseudomonas aeruginosa. Minimum inhibitory concentrations (MICs) were determined using a curve-fitting technique.
(§7) S2.1. Antibacterial Studies
(§8) Bacterial cultures were prepared by overnight aerobic incubation at 37 °C. Gram-negative strains were cultivated in Müller Hinton broth supplemented with 1% glucose at pH 7.2, while Gram-positive strains were grown in Trypticase soy yeast extract medium (TSY) with a composition of 30 g/l trypticase soy broth, 3 g/l yeast extract, and pH 7.2. The cultures were adjusted to an OD600 of 0.001, resulting in a final starting OD600 of 0.0005 for the subsequent tests. For testing, 25 μL of the prepared culture was combined with 25 μL of serially diluted test compounds in 384 well plates, following established protocols for different strains. Screening was performed at compound concentrations of 0.5, 5, and 50 µM, and for selected compounds, growth inhibition curves were recorded using DMSO stock solutions […]
(§9) Positive control compounds, namely linezolid (for MRSA strains), ciprofloxacin (for E. faecium and E. coli), and amikacin (for P. aeruginosa), were included. The maximum DMSO concentration in the assay […]
(§10) After an 18-hour incubation at 37 °C under moist conditions, the optical density at 600 nm was measured using a Fusion Universal Microplate Analyser (Perkin–Elmer, Waltham, USA). The minimum inhibitory concentration (MIC) values, representing the […]
(§11) fitting with Sigma Plot. The bacterial strains used included Gram-negative strains: Escherichia coli (DSM 1116), A. baumannii (DSM30007), K. pneumoniae (DSM111678), and Pseudomonas aeruginosa PA7 (DSM 24068); and Gram-positive strains: E. faecium (DSM20477) and Staphylococcus aureus MRSA

[3] = tested on: Escherichia coli DSM 1116; assay: Antibacterial activity (MIC, curve fitting); format: cell-based; conditions: for MIC, E. coli: Table S12, ± standard error of the mean; for MIC, E.c.: Table 2, Escherichia coli DSM 1116, 18 h, 37 °C
Method: as §6, §7, §8, §9, §10, §11

[4] = tested on: Acinetobacter baumannii DSM30007; assay: Antibacterial activity (MIC, curve fitting); format: cell-based; conditions: for MIC, A. baumannii: Table S12, ± standard error of the mean; for MIC, A.b.: Table 2, Acinetobacter baumannii DSM30007, 18 h, 37 °C
Method: as §6, §7, §8, §9, §10, §11

[5] = tested on: Klebsiella pneumoniae DSM111678; assay: Antibacterial activity (MIC, curve fitting); format: cell-based; conditions: for MIC, K. pneumoniae: Table S12, ± standard error of the mean; for MIC, K.p.: Table 2, Klebsiella pneumoniae DSM111678, 18 h, 37 °C
Method: as §6, §7, §8, §9, §10, §11

[6] = tested on: Pseudomonas aeruginosa DSM 24068; assay: Antibacterial activity (MIC, curve fitting); format: cell-based; conditions: for MIC, P. aeruginosa: Table S12, ± standard error of the mean; for MIC, P.a.: Table 2, Pseudomonas aeruginosa DSM 24068, 18 h, 37 °C
Method: as §6, §7, §8, §9, §10, §11

[7] = tested on: Enterococcus faecium DSM20477; assay: Antibacterial activity (MIC, curve fitting); format: cell-based; conditions: for MIC, E. faecium: Table S12, ± standard error of the mean; for MIC, E.f.: Table 2, Enterococcus faecium DSM20477, 18 h, 37 °C
Method: as §6, §7, §8, §9, §10, §11

[8] = tested on: MDA-MB-231 breast cancer cells; assay: Antiproliferative activity, crystal violet assay; format: cell-based; conditions: 96 h exposure, SD in parentheses, n = 3
Method: as §1, §2, §3, §4, §5

[9] = tested on: HT-29 colon carcinoma cells; assay: Antiproliferative activity, crystal violet assay; format: cell-based; conditions: 72 h exposure, SD in parentheses, n = 3
Method: as §1, §2, §3, §4, §5

[10] = tested on: MCF-7 breast adenocarcinoma cells; assay: Antiproliferative activity, crystal violet assay; format: cell-based; conditions: 96 h exposure, SD in parentheses, n = 3
Method: as §1, §2, §3, §4, §5

[11] = tested on: A549 lung carcinoma cells; assay: Antiproliferative activity, crystal violet assay; format: cell-based; conditions: 72 h exposure, SD in parentheses, n = 3
Method: as §1, §2, §3, §4, §5

[12] = Table S12, ± standard error of the mean
[13] = Table 2, MRSA DSM 11822, 18 h, 37 °C

SMILES	TrxR activity, % of control (TrxR from E. coli)	IC50 [1] [µM]	Tumour selectivity: tumour cell lines in comparison to Vero E6 ([1]; comparison of IC50 in tumour cell lines and non-tumour Vero E6)	MIC, MRSA [2, 12] [µM]	MIC, E. coli [3] [µM]	MIC, A. baumannii [4] [µM]	MIC, K. pneumoniae [5] [µM]	MIC, P. aeruginosa [6] [µM]	MIC, E. faecium [7] [µM]	IC50 [8] [µM]	IC50 [9] [µM]	IC50 [10] [µM]	IC50 [11] [µM]	MIC, MRSA [2, 13]	MIC, E.c. [3]	MIC, A.b. [4]	MIC, K.p. [5]	MIC, P.a. [6] [µM]	MIC, E.f. [7]	IC50 (TrxR from E. coli) [µM]
CCOC(=O)c1cn(C)[c]([Au-][c]2n(C)cc(C(=O)OCC)[n+]2C)[n+]1C.F[B-](F)(F)F [3c]	115 % of control	31.5	clear preference for the tumour cell lines	25.79 ± 0	> 100	> 100	> 100	> 100	> 100	2.51	5.78	4.64	1.07	–	–	–	–	–	–	–
Cn1cc(C(=O)O)[n+](C)[c]1[Au-]([Cl])([Cl])[Cl] [4a]	86.1 % of control	42.4	–	> 100	72.16 ± 0	36.08 ± 2.83	36.08 ± 5.67	> 100	> 100	31.8	> 90	47.8	36.1	>100 µM	72 ± 0 µM	36 ± 3 µM	36 ± 6 µM	>100	>100 µM	–
COC(=O)c1cn(C)[c]([Au-]([Cl])([Cl])[Cl])[n+]1C [4b]	36.5 % of control	22.2	–	17.49 ± 0	34.97 ± 0	8.74 ± 1.82	34.97 ± 0	> 100	17.49 ± 0	15.2	26.2	15.2	17.7	17 µM and 17 ± 0 µM	35 µM and 35 ± 0 µM	9 µM and 9 ± 2 µM	35 µM and 35 ± 0 µM	>100	17 µM and 17 ± 0 µM	0.362 ± 0.033
CCOC(=O)c1cn(C)[c]([Au-]([Cl])([Cl])[Cl])[n+]1C [4c]	28.5 % of control	20.7	–	16.97 ± 2.67	33.93 ± 0	8.48 ± 1.33	33.93 ± 5.33	> 100	16.97 ± 0	11.1	28.4	14.6	17.9	17 µM and 17 ± 2 µM	34 µM and 34 ± 0 µM	8 µM and 8 ± 1 µM	34 µM and 34 ± 5 µM	>100	17 µM and 17 ± 0 µM	0.381 ± 0.053

From article PMC11342128, “Gold(I) and gold(III) carbene complexes from the marine betaine norzooanemonin: inhibition of thioredoxin reductase, antiproliferative and antimicrobial activity” (RSC Medicinal Chemistry, 2024)
